According to US8480909B2, “Method for treatment of canals” (priority 2009, dated 2013):
“Also recorded” adds a separate entry of the source.

Assays:
[1] = cited from earlier work
[2] = test system: crustaceans; conditions: cited from earlier work
[3] = test system: amphibians; conditions: cited from earlier work
[4] = test system: zooplankton; conditions: cited from earlier work
[5] = test system: mollusks; conditions: cited from earlier work
[6] = test system: fish; conditions: cited from earlier work
[7] = test system: insects; conditions: cited from earlier work
[8] = test system: rats; conditions: oral; cited from earlier work
[9] = test system: algae; assay: Treatment of agricultural-water canal with air-stream-entrained calcium hypochlorite; visual observation of algae; format: in vivo; conditions: per quarter-mile canal section
Text: The device and method of the present invention were employed to treat a canal, and visual observations of the amount of algae present in the canal before this treatment, and periodically after this treatment, are set forth in Tables 1-3 below. (The visual observations are accurate and realistic evaluations because the visual amount of algae in the canal correlates well to actual biological-debris problems.) This canal is fed from a large water reservoir which has about thirty percent of its surface covered with algae. This canal is therefore continuously being inoculated with algae which enters with the source water. The flow rate of the water when entering the canal is about one hundred eighty cubic feet per second. Due to water usage from the various growers along the canal, this initial water flow rate decreases at points along the canal, and then decreases dramatically over the last mile to about twenty cubic feet per second. This canal is a typical example of one which is in need of treatment to remediate organic debris. Prior to the treatments of this Example 1, this canal was being point treated with acrolein every eight to ten days during the height of the irrigation season to obtain a satisfactory treatment. In this Example 1, the canal was treated three times along substantially its entire length by propelling a calcium hypochlorite-entrained air stream to the water surface and to the sides of the canal from a delivery system suspended off a mobile unit as described above. An operator made visual assessments of the degree of organic debris build-up along the canal and adjusted the concentration of calcium hypochlorite in the air stream accordingly. The pre-treatment and post-treatment conditions of the canal are shown in Tables 1, 2 and 3 below where the visual assessment of organic debris, made at each quarter mile along the length of the canal, are reported at: (a) just before treatment; (b) twelve hours after the treatment; (c) about a week (seven or eight days) after the treatment; and about a week and a half (ten, twelve and ten days, respectively) after treatment. The just before treatment assessment for the second and third treatments set forth in Tables 2 and 3 below are also continued-assessments of the prior treatment (i.e., the T2-b observations in Table 2 are the same as the T1-10d observations in Table 1, and the T3-b observations in Table 3 are the same as the T2-12d observations in Table 2). Further, any relative terms in an observation refer to the prior observation made at the given time; for example, the “slightly larger patches” observation under T1-10d at 0.75 to 1.00 miles in Table 1 below refers to the patches being slightly larger than the patches observed at T1-10d at 0.50 to 0.75 miles, and not to the canal condition observed at T1-7d at 0.75 to 1.00 miles.

## C=CC=O [Acrolein]
[1]
  water solubility: 238,000 mg/L
[2]
  average acute toxicity: moderately toxic
[3]
  average acute toxicity: very highly toxic
[4]
  average acute toxicity: highly toxic
[5]
  average acute toxicity: highly toxic
[6]
  average acute toxicity: highly toxic
[7]
  average acute toxicity: moderately toxic

## [Ca+2].[O-]Cl.[O-]Cl [calcium hypochlorite]
[8]
  LD50: 850 gm/100 kg
[9]; T1-12 h: 12 hr. after Treatment 1, canal section 2.75 to 3.00 miles
  Canal Description (visual observation of algae): Canal visually free of algae.
[9]; T1-12 h: 12 hr. after Treatment 1, canal section 3.25 to 3.50 miles
  Canal Description (visual observation of algae): Canal is visually free of algae.
[9]; T1-12 h: 12 hr. after Treatment 1, canal section 4.75 to 5.00 miles
  Canal Description (visual observation of algae): Small amounts of discolored/dying algae are adhering to the bottom of the canal.
[9]; T1-12 h: 12 hr. after Treatment 1, canal section 5.50 to 5.75 miles
  Canal Description (visual observation of algae): Small amounts of discolored/dying algae are adhering to bottom of the canal.
[9]; T1-12 h: 12 hr. after Treatment 1, canal section 5.75 to 6.00 miles
  Canal Description (visual observation of algae): Small amounts of discolored/dying algae are adhering to the bottom and sides of
[9]; T1-7 d: 7 days after Treatment 1, canal section 0.00 to 0.25 miles
  Canal Description (visual observation of algae): Clear, visually free of algae.
[9]; T1-7 d: 7 days after Treatment 1, canal section 2.75 to 3.00 miles
  Canal Description (visual observation of algae): Slight amount of algae is growing on the water surface of the canal.
[9]; T1-7 d: 7 days after Treatment 1, canal section 3.25 to 3.50 miles
  Canal Description (visual observation of algae): Slight amount of algae is growing on the water surface and along the sides of
[9]; T1-7 d: 7 days after Treatment 1, canal section 5.25 to 5.50 miles
  Canal Description (visual observation of algae): Slight amount of is algae is growing on the water surface and along the sides
[9]; T1-7 d: 7 days after Treatment 1, canal section 5.50 to 5.75 miles
  Canal Description (visual observation of algae): Slight amount of algae is growing on the water surface and along the sides
[9]; T1-7 d: 7 days after Treatment 1, canal section 6.50 to 6.75 miles
  Canal Description (visual observation of algae): Small amount of algae is growing on the water surface. Slight amount of algae
[9]; T1-7 d: 7 days after Treatment 1, canal section 6.75 to 7.00 miles
  Canal Description (visual observation of algae): Small amount of algae is growing on the water surface. Small amount of algae
[9]; T1-10 d: 10 days after Treatment 1
  Canal Description (visual observation of algae): Slight amount of algae is growing along the sides of the canal; also recorded: Slight amount of algae is growing on the water surface and along the sides of; also recorded: Small amount of algae is growing on the water surface and along the sides of; also recorded: Slightly larger patches of algae are growing on the water surface and along
[9]; T2-12 h: 12 hr. after Treatment 2
  Canal Description (visual observation of algae): Canal visually free of algae; also recorded: Small amounts of discolored/dying algae are adhering to bottom of the canal; also recorded: Small amounts of discolored/dying algae are adhering to the bottom and sides of
[9]; T2-8 d: 8 days after Treatment 2, canal section 0.00 to 0.25 miles
  Canal Description (visual observation of algae): Clear, visually free of algae.
[9]; T2-8 d: 8 days after Treatment 2, canal section 3.00 to 3.25 miles
  Canal Description (visual observation of algae): Slight amount of algae is growing on the water surface of the canal.
[9]; T2-8 d: 8 days after Treatment 2, canal section 4.00 to 4.25 miles
  Canal Description (visual observation of algae): Slight amount of algae is growing on the water surface and along the sides of
[9]; T2-8 d: 8 days after Treatment 2, canal section 5.50 to 5.75 miles
  Canal Description (visual observation of algae): Slight amount of algae is growing on the water surface and along the sides
[9]; T2-8 d: 8 days after Treatment 2, canal section 6.50 to 6.75 miles
  Canal Description (visual observation of algae): Small amount of algae is growing on the water surface. The amount of algae
[9]; T2-8 d: 8 days after Treatment 2, canal section 6.75 to 7.00 miles
  Canal Description (visual observation of algae): Small amount of algae on the water surface. The amount of algae on the sides
[9]; T2-12 d: 12 days after Treatment 2
  Canal Description (visual observation of algae): Very slight amount of algae is growing along the sides of the canal; also recorded: Slight amount of algae is growing along the sides of the canal; also recorded: Slight amount of algae is growing on the water surface and along the sides; also recorded: Slight amount of algae is growing on water surface and along the sides and; also recorded: Slightly more algae is growing on water surface and along the sides of the; also recorded: Slightly more algae is growing on the water surface and along the sides of
[9]; T2-b: just before Treatment 2, 10 days after Treatment 1
  Canal Description (visual observation of algae): Slight amount of algae is growing on the water surface and along the sides of the; also recorded: Slightly larger patches of algae are growing on the water surface and along the sides; also recorded: Slight amount of algae is growing along the sides of the canal
[9]; T3-12 h: 12 hr. after Treatment 3, canal section 3.25 to 3.50 miles
  Canal Description (visual observation of algae): Canal visually free of algae.
[9]; T3-12 h: 12 hr. after Treatment 3, canal section 5.00 to 5.25 miles
  Canal Description (visual observation of algae): Small amounts of discolored/dying algae are present.
[9]; T3-12 h: 12 hr. after Treatment 3, canal section 5.75 to 6.00 miles
  Canal Description (visual observation of algae): Small amounts of discolored/dying algae are adhering to the bottom and sides of
[9]; T3-b: just before Treatment 3, 12 days after Treatment 2
  Canal Description (visual observation of algae): Slight amount of algae is growing along the sides of the canal; also recorded: Slightly more algae is growing on the water surface and along the sides of the canal; also recorded: More algae is growing on the water surface of the canal. Small amount of algae is; also recorded: Very slight amount of algae is growing along the sides of the canal; also recorded: More algae is growing on the water surface of the canal. More algae is growing up
